From the METLIN SMRT retention time set (Domingo-Almenara et al. 2019)

Assay: gradient 5% acetonitrile 3 min, to 50% in 2 min, to 85% in 15 min, held 3 min, 100 µL/min
Settings: column: Zorbax Extend-C18 2.1 x 50 mm; eluents: water / acetonitrile, 0.1% formic acid
Procedure, shortened: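 Pure standards were run in mixtures of ~100 molecules by HPLC coupled to a quadrupole time-of-flight mass spectrometer. The column was a Zorbax Extend-C18 (2.1 × 50 mm, 1.8 μm) at 100 μL/min, with water and acetonitrile each containing 0.1% formic acid, in positive and negative ionization mode. Dead and dwell volumes were 40 μL and 900 μL. Retention time was taken from computationally picked adduct peaks, each manually inspected, with data collected over 3 months.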

| SMILES | RP-LC retention time [s] |
| --- | --- |
| CC1(C(=O)NCc2ccc(F)cc2)Cn2cnc(C(=O)NCc3ccccc3F)c2C(=O)N1C1CC1 (stereo not given) | 751 |
| CC(C)CCC(=O)N1CCC(N2C[C@H](O)C[C@H]2C(N)=O)CC1 | 571 |
| O[C@@H]1C[C@@H](c2nnc3n2CCN(Cc2cccc(F)c2)C3)N(Cc2cccnc2)C1 | 588 |
| Cc1cc(C(=O)Nc2cc(-c3ccco3)nn2CCO)no1 | 725 |
| Cn1cc(-c2ccncc2)cc1C(=O)NCc1ccc(F)cc1Cl | 653 |
| Clc1ccc(CSc2nnc(-c3ccc(Br)cc3)o2)cc1 | 1270 |
| O=C(NC1CC1)C1CCN(c2nc3ccc(-c4cncnc4)nc3s2)CC1 | 672 |
| COc1ccc(N2CCN(c3cc(SCC(=O)Nc4ccc(C#N)cc4)ncn3)CC2)cc1 | 890 |
| CCNc1nc(C)cc(N2CCN(S(=O)(=O)c3cc(Cl)ccc3Cl)CC2)n1 | 776 |
| O=C(CN1CCN(C(=O)Nc2ccc(F)cc2)CC1=O)NC1CCCCC1 | 701 |
| O=C(Nc1nc(-c2ccccc2)cs1)c1c(-c2ccc(Cl)cc2)nc2n1CCS2(=O)=O | 1080 |
| O=C(Cc1cccc(F)c1)Nc1cc(-c2ccccn2)no1 | 800 |
| CC1=C(c2ccccc2)S(=O)(=O)N=C1N1CCCN(C(=O)c2ccsc2)CC1 | 571 |
| COc1ccc(Cl)cc1NS(=O)(=O)c1cc(-c2[nH]ncc2C(=O)N(C)C)oc1C | 716 |
| Cn1c(SCC(=O)c2ccccc2OC(F)F)nc2ccccc21 | 808 |
| COc1cc(NC(C)=O)c(Cl)cc1C(=O)NCCc1c[nH]c2ccc(C)cc12 | 831 |
| CS(=O)(=O)N1CCCC1C(=O)Nc1cccc(F)c1 (stereo not given) | 730 |
| CC(C)CCOc1cccc(OCC(=O)NCC(=O)O)c1 | 772 |
| Cc1nc(-c2cn(C(C)C)c3ncccc23)sc1C(=O)NC1CCCC1 | 1000 |
| C=CCN1C(=O)C(C)(C)COc2cc(NS(=O)(=O)C3CCCCC3)ccc21 | 932 |
| O=C(CCSc1ccccc1)N1CCN(c2ccc3nnc(C4CC4)n3n2)CC1 | 684 |
| CCCN(C)C(=O)c1ccc2c(c1)Sc1ncccc1C(=O)N2C(C)C | 760 |
| Cc1nnc(-c2cc(C)n(CC(=O)Nc3ccc(F)cc3)c2C)o1 | 754 |
| O=C(Cc1nc(-c2ccccn2)n[nH]1)Nc1cc(F)ccc1F | 652 |
| CC(NC(=O)C1CCN(S(=O)(=O)c2ccc(Cl)cc2)CC1)C(=O)N1CCCc2ccccc21 (stereo not given) | 945 |
| CCn1ccc(C(=O)Nc2c3c(nn2C)CCC3)n1 | 621 |
| Cc1noc(C2CN(C(=O)Nc3c(C)cccc3C)CC23CCOCC3)n1 (stereo not given) | 693 |

| SMILES | RP-LC retention time [s] |
| --- | --- |
| CCOC(=O)C1CCN(C(=O)c2n[nH]c(=O)c3ccccc23)CC1 | 677 |
| CCc1cc(N2CCN(C(=O)c3cccc(C#N)c3)CC2)nc2nncn12 | 589 |
| COc1ccc2[nH]c(-c3ccccc3)c(CCNC(C)=O)c2c1 | 832 |
| CC(=O)N1CCC(CC(=O)N2CCc3nn(CC4CC4)c(=O)n3CC2)CC1 | 596 |
| O=C(NCCN1CCCCC1)C1CCc2sc(C(=O)N3CCOCC3)cc2C1 (stereo not given) | 581 |
| CN(Cc1ccccc1)C(=O)CN1C(=O)C2CCCCN2c2ccc(S(=O)(=O)N3CCCC3)cc21 (stereo not given) | 987 |
| Cc1ccc(Cn2nc3ccc(S(=O)(=O)N4CCCCC4)cn3c2=O)cc1 | 952 |
| Cc1cc(C(=O)NCc2ccc(C)o2)c2cc(Br)ccc2n1 | 801 |
| CCc1nnc(NS(=O)(=O)c2ccc(N)cc2)s1 | 711 |
| CN1c2ccc(F)cc2C(=O)NC12CCN(C(=O)c1ccc3c(c1)OCO3)CC2 | 724 |
| CC1CC(=O)N(CC(=O)Nc2cccc(Cl)c2)c2ccccc2S1(=O)=O (stereo not given) | 796 |
| CCN(CC)C(=O)Oc1ccc(C(=O)Nc2cccc3ccccc23)cc1 | 896 |
| Cc1ccc(CNC(=O)NC2CCN(C(=O)N3C[C@H]4C[C@H](C3)[C@H]3CCCC(=O)N3C4)CC2)cc1 | 681 |
| CCCNC(=O)c1n[nH]c2c1CCCCCC2 | 776 |
| Cc1nc(-c2nc(-c3cccs3)cs2)cn1CC(=O)NCc1ccccc1 | 760 |
| CN1C(=O)C2CCCCN2c2ccc(C(=O)NCCCN3CCCCCC3)cc21 (stereo not given) | 627 |
| O=C1CCN(C(=O)C2CCN(C(=O)C3CC3)CC2)CCCCCCN1 | 598 |
| CN1C(=O)CS(=O)(=O)C12CCN(C(=O)c1ccc3c(c1)OCO3)CC2 | 628 |
| Cc1ccc(NC(=O)Nc2cnn(-c3ncncc3N3CCOCC3)c2)cc1C | 674 |
| COc1ccc(NC(=O)Cn2cccc(-c3nc(-c4ccc(OC)c(OC)c4)no3)c2=O)cc1OC | 722 |
| CCCc1nc2cccnc2n1C1CCN(C(=O)c2ccc(OC)nc2)C1 (stereo not given) | 588 |
| CCN(C(=O)c1cc2c(=O)n(CC)c3ccccc3n2n1)c1ccc(F)cc1 | 945 |
| CCn1nccc1C(=O)N1CCCN(c2nnc3ccccn23)CC1 | 879 |
| Cc1c(S(=O)(=O)CCNC(=O)Nc2ccc3c(c2)OCO3)c2ccccc2n1C | 729 |
| Cc1ccc(C(=O)N2CCN(c3nnc4cccc(C)n34)CC2)cc1C | 705 |
| Cn1c(CN2CCN(C(=O)Cc3ccc(Cl)cc3)CC2)nc2cc(C(=O)N3CCCC3)ccc21 | 646 |

Next, values leading:

| RP-LC retention time [s] | SMILES |
| --- | --- |
| 926 | Cc1ccc(-n2c(=O)n(C)c(=O)c3cc(C(=O)Nc4ccccc4)cnc32)cc1 |
| 755 | CN(C)c1cc(-n2cnc(C(=O)Nc3ccc4c(c3)OCCO4)c2)ncn1 |
| 1070 | Fc1ccc(-c2noc(Cc3nnc(-c4cccc(Cl)c4)o3)n2)cc1 |
| 799 | Cc1csc2nc(CSc3nnc(-c4ccccc4F)o3)cc(=O)n12 |
| 820 | Cc1oc(C2CCN(C(=O)Cc3ccccc3Cl)CC2)nc1C(=O)N1CCCC1 |
| 781 | CCOC(=O)c1cccc(NS(=O)(=O)c2cc(-c3c(C)noc3NC(C)=O)ccc2OC)c1 |
| 735 | COc1cc2nc(C(=O)N3CCCCC3)cc(Nc3ccc(F)c(Cl)c3)c2cc1OC |
| 725 | COC(=O)c1c(NC(C)C)c2cccc(Cl)c2[nH]c1=O |
| 782 | CC(=O)O[C@H]1Cc2ccccc2N(C(N)=O)c2ccccc21 |
| 1010 | Cc1ccc(Cl)cc1NS(=O)(=O)c1ccc(-c2c(C)noc2C)cc1 |
| 694 | CC(NC(=O)c1cccnc1)c1nc(-c2ccccc2)no1 (stereo not given) |
| 1110 | Cc1ccc(-c2nc(-c3ccc(S(=O)(=O)N4CCC(C(=O)N5CCCC5)CC4)cc3)no2)cc1F |
| 804 | O=C1CC(C(=O)N2CCc3ccccc3C2)CN1CCc1c[nH]c2ccc(F)cc12 (stereo not given) |
| 712 | Cc1cc(=O)n(CC(=O)Nc2ccc(Br)cc2)c(N2CCOCC2)n1 |
| 811 | COc1ccccc1NC(=O)N1CCC(CNC(=O)c2cc(Cl)ccc2Cl)CC1 |
| 695 | O=C(COc1ccc(C2=NN(C(=O)c3cccs3)C(c3ccccc3)C2)cc1)NCCO (stereo not given) |
| 707 | O=C(c1ccsc1)N1CCCC1Cc1noc(-c2cnccn2)n1 (stereo not given) |
| 1130 | CCc1nc2cc(-c3noc(-c4cccc(OC)c4OC)n3)ccc2o1 |
| 796 | CCOC(=O)c1oc2ccccc2c1NC(=O)C1CCCN1S(C)(=O)=O (stereo not given) |

| RP-LC retention time [s] | SMILES |
| --- | --- |
| 756 | CCN1c2cc(F)ccc2C(=O)NC12CCN(C(=O)c1cccc(OC)c1)CC2 |
| 690 | COCCNC(=O)c1nnn(-c2cccc(Cl)c2)c1-c1ccncc1 |
| 875 | Cc1ccc(C(=O)N2CCC3(CC2)N=C(c2ccc(Br)cc2)NO3)cc1 |
| 596 | CN1CCC(OC2CCN(C(=O)CC3CCCC3)CC2)CC1 |
| 685 | COC(=O)c1c(N)n(-c2cccc(F)c2)c2nc3ccccc3nc12 |
| 654 | CCOC(=O)c1cccc(Nc2nc(C)nc3c2CCC3)c1 |
| 973 | COc1ccc(-c2noc(Cc3nnc(-c4cccc(Cl)c4)o3)n2)cc1OC |
| 741 | O=C(Cc1ccc(F)cc1)N[C@H](Cc1ccccc1)C(=O)NCc1cscn1 |
| 768 | COc1ccc(CC(=O)N2C[C@@H]3C[C@H]2C[C@@H]3NS(=O)(=O)c2ccccc2)cc1 |
| 703 | CCOC(=O)c1cnc2nc(C)ccc2c1Nc1ccc(F)c(F)c1 |
| 667 | CCC1CCCCN1C(=O)c1cnc2nc(C)ccc2c1Nc1ccc(OC)cc1OC (stereo not given) |
| 637 | COCCNC(=O)Cc1ccc(NC(=O)c2ccc(Br)o2)cc1 |
| 951 | O=C(NCc1ccc(F)cc1)c1ccc2c(cnn2CC(=O)N2CCCCCC2)c1 |
| 1290 | COc1cccc(N2CCN(S(=O)(=O)c3cccc(-c4nc(-c5ccccc5)no4)c3)CC2)c1 |
| 695 | Cc1ccc(-c2ccc(-n3nc(C)c(S(=O)(=O)N4CCN(C)CC4)c3C)nn2)cc1 |
| 1200 | Cc1ccc(C)c(Nc2nc(-c3ccccc3)cs2)c1 |
| 782 | O=C(c1ccc(OCC2CCN(C(=O)C3CCC3)CC2)cc1)N1CCCC1 |
| 700 | Cc1noc(-c2cccc(OC3CN(C(=O)c4cnn(C)c4)C3)c2)n1 |
